Data reported in patent US11065253B2, “Arylquinazolines” (Merck Patent GmbH, priority 2013, dated 2021).

system: phospho-serine 2056 DNA-PK in HCT116 cells; assay: DNA-PK phosphorylation at serine 2056 (cellular), ELISA in bleomycin-treated HCT116 cells; format: cell-based; settings: Homo sapiens, HCT-116, 6 h, cellular; HCT116 cells, 10 μM bleomycin, six hours; read-out: IC50 pDNA-PK
Procedure: HCT116 cells were cultivated at 37° C. and 10% CO2 in MEM alpha medium with 10% of foetal calf serum and 2 mM glutamine. The cells were detached from the base of the culture vessels with the aid of trypsin/EDTA, centrifuged off in centrifuge tubes, taken up in fresh medium, and the cell density was determined. 100,000 cells were sown in 1 ml of culture medium per cavity of a 24-well cell culture plate and cultivated overnight. Next day, 10 μM bleomycin (DNA intercalator and inductor of DNA double-strand breaks) and test substances in fresh culture medium were added to the cells, and these were cultivated for a further six hours. […] The 96-well ELISA plates were subsequently treated with a detection antibody (Abcam ab79444: total DNA-PK) and a streptavidin-HRP conjugate. The development of the enzymatic reaction was carried out with the aid of a chemiluminescent reagent, the chemiluminescence was measured with the aid of a Mithras LB940. The signals with the phospho-DNA-PK-specific antibody were standardised to the signal with the antibody against the total protein DNA-PKc. […] The DMSO control was used as blank.

IC50 [nM]	SMILES
500 to 5000	Cc1ccc(C(O)c2ccc(F)c(-c3ncnc4cc(N5CCOCC5)ccc34)c2)nn1 (stereo not shown) [Example 70, [4-Fluoro-3-(7-morpholin-4-yl-quinazolin-4-yl)phenyl]-(6-methylpyridazin-3-yl)methanol]
10000 to 30000	O=C(O)c1ccc(C(O)c2cc(-c3ncnc4cc(N5CCOCC5)ccc34)c(F)cc2Cl)nn1 (stereo not shown) [Example 55, 6-{[2-Chloro-4-fluoro-5-(7-morpholin-4-yl-quinazolin-4-yl)phenyl]-hydroxymethyl}-pyridazine-3-carboxylic acid]
500 to 5000	CNC(=O)c1ccc(C(O)c2cc(-c3ncnc4cc(N5CCOCC5)ccc34)c(F)cc2Cl)nn1 (stereo not shown) [Example 43, 6-{[2-Chloro-4-fluoro-5-(7-morpholin-4-yl-quinazolin-4-yl)phenyl]-hydroxymethyl}-pyridazine-3-carboxylic acid methylamide]
< 500	Cc1nccnc1C(O)c1cc(-c2ncnc3cc(N4CCOCC4)ccc23)c(F)cc1F (stereo not shown) [Example 84, [2,4-Difluoro-5-(7-morpholin-4-yl-quinazolin-4-yl)-phenyl]-(3-methyl-pyrazin-2-yl)methanol]
< 500	COc1nccnc1C(O)c1ccc(F)c(-c2ncnc3cc(N4CCOCC4)ccc23)c1 (stereo not shown) [Example 15, [4-Fluoro-3-(7-morpholin-4-yl-quinazolin-4-yl)phenyl]-(3-methoxy-pyrazin-2-yl)methanol]
10000 to 30000	NC(=O)Cn1nc(C(O)c2cc(-c3ncnc4cc(N5CCOCC5)ccc34)c(F)cc2Cl)ccc1=O (stereo not shown) [Example 98, 2-(3-{[2-Chloro-4-fluoro-5-(7-morpholin-4-ylquinazolin-4-yl)-phenyl]hydroxymethyl}-6-oxo-6H-pyridazin-1-yl)acetamide]
< 500	O=c1ccc(C(O)c2cc(-c3ncnc4cc(N5CCOCC5)ccc34)c(F)cc2Cl)n[nH]1 (stereo not shown) [Example 92, 3-[[2-Chloro-4-fluoro-5-(7-morpholino-quinazolin-4-yl)phenyl]-hydroxymethyl]-1H-pyridazin-6-one]
10000 to 30000	CN(C)C(=O)c1ccc(C(O)c2cc(-c3ncnc4cc(N5CCOCC5)ccc34)c(F)cc2Cl)nn1 (stereo not shown) [Example 50, 6-{[2-Chloro-4-fluoro-5-(7-morpholin-4-yl-quinazolin-4-yl)phenyl]-hydroxymethyl}-pyridazine-3-carboxylic acid dimethylamide]
< 500	OC(c1cc(-c2ncnc3cc(N4CCOCC4)ccc23)ccc1Cl)c1ncnc2ccsc12 (stereo not shown) [Example 89, [2-Chloro-5-(7-morpholin-4-yl-quinazolin-4-yl)-phenyl]thieno[3,2-d}-pyrimidin-4-ylmethanol]
< 500	OC(c1ccn2nccc2n1)c1cc(-c2ncnc3cc(N4CCOCC4)ccc23)c(F)cc1Cl (stereo not shown) [Example 39, [2-Chloro-4-fluoro-5-(7-morpholin-4-yl-quinazolin-4-yl)phenyl]-pyrazolo[1,5-a]-pyrimidin-5-ylmethanol]

same assay, conditions: Homo sapiens, HCT-116, cellular DNA-PK phosphorylation at serine 2056, HCT116 cells; read-out: IC50 pDNA-PK

IC50 [nM]	SMILES
500 to 5000	Cc1cncnc1C(O)c1cc(-c2ncnc3cc(N4CCOCC4)ccc23)ccc1Cl (stereo not shown) [Example 417, [2-Chloro-5-(7-morpholin-4-yl-quinazolin-4-yl)-phenyl]-(5-methyl-pyrimidin-4-yl)-methanol (Ena 2)]
< 500	OC(c1ccc(F)c(-c2ncnc3cc(N4CCOCC4)ccc23)c1)c1ncccc1Br (stereo not shown) [Example 478, (3-bromo-pyridin-2-yl)-[4-fluoro-3-(7-morpholin-4-yl-quinazolin-4-yl)-phenyl]methanol]
10000 to 30000	CN1CCN(c2nccnc2C(O)c2ccc(F)c(-c3ncnc4cc(N5CCOCC5)ccc34)c2)C1=O (stereo not shown) [Example 424, 1-(3-{[4-Fluoro-3-(7-morpholin-4-yl-quinazolin-4-yl)-phenyl]hydroxy-methyl}pyrazin-2-yl)-3-methyl-imidazolidin-2-one]
< 500	OC(c1cc(-c2ncnc3cc(N4CCOCC4)ccc23)ccc1Cl)c1ncnc2ccoc12 (stereo not shown) [Example 414, [2-Chloro-5-(7-morpholin-4-yl-quinazolin-4-yl)-phenyl]furo[3,2-d}-pyrimidin-4-yl-methanol (Ena 2)]
500 to 5000	COc1cncnc1C(O)c1cc(-c2ncnc3cc(N4CCOCC4)ccc23)ccc1Cl (stereo not shown) [Example 408, [2-Chloro-5-(7-morpholin-4-yl-quinazolin-4-yl)-phenyl]-(5-methoxy-pyrimidin-4-yl)-methanol (Ena 2)]
< 500	Cc1nccnc1C(O)c1cc(-c2ncnc3cc(N4CCOCC4)ccc23)c(F)cc1Cl (stereo not shown) [Example 457, [2-Chloro-4-fluoro-5-(7-morpholin-4-yl-quinazolin-4-yl)-phenyl]-(3-methyl-pyrazin-2-yl)-methanol]
< 500	COc1cnc(C(O)c2ccc(F)c(-c3ncnc4cc(N5CCOCC5)ccc34)c2)c(Br)c1 (stereo not shown) [Example 473, (3-bromo-5-methoxy-pyridin-2-yl)-[4-fluoro-3-(7-morpholin-4-yl-quinazolin-4-yl)-phenyl]methanol]

SMILES	IC50 [nM]
COc1nccnc1C(O)c1cc(-c2ncnc3cc(N4CCOCC4)ccc23)ccc1Cl (stereo not shown) [Example 410, [2-Chloro-5-(7-morpholin-4-yl-quinazolin-4-yl)-phenyl]-(3-methoxy-pyrazin-2-yl)-methanol (Ena 2)]	< 500

same assay, conditions: Homo sapiens, HCT-116, phospho-serine 2056 DNA-PK, bleomycin-treated HCT116 cells; class symbols A-D; read-out: IC50 pDNA-PK

IC50 [nM]	SMILES
< 500	N#CCOc1ccc(C(O)c2cc(-c3ncnc4cc(N5CCOCC5)ccc34)c(F)cc2Cl)nn1 (stereo not shown) [Example 119, (6-{[2-Chloro-4-fluoro-5-(7-morpholin-4-yl-quinazolin-4-yl)-phenyl]hydroxy-methyl}pyridazin-3-yl-oxy)acetonitrile]
< 500	OC(c1cccnc1)c1cc(-c2ncnc3cc(N4CCOCC4)ccc23)c(F)cc1F (stereo not shown) [Example 217, [2,4-Difluoro-5-(7-morpholin-4-yl-quinazolin-4-yl)-phenyl]pyridin-3-yl-methanol]
10000 to 30000	OC(c1cc(F)cc(-c2ncnc3cc(N4CCOCC4)ccc23)c1)c1nccs1 (stereo not shown) [Example 169, [3-Fluoro-5-(7-morpholin-4-yl-quinazolin-4-yl)-phenyl]thiazol-2-yl-methanol]
5000 to 10000	COc1cc(C)c(C(O)c2cc(-c3ncnc4cc(N5CCOCC5)ccc34)c(F)cc2Cl)nn1 (stereo not shown) [Example 109, [2-Chloro-4-fluoro-5-(7-morpholin-4-yl-quinazolin-4-yl)-phenyl]-(6-methoxy-4-methylpyridazin-3-yl)methanol]
5000 to 10000	OC(c1nccs1)c1cc(-c2ncnc3cc(N4CCOCC4)ccc23)ccc1F (stereo not shown) [Example 170, [2-Fluoro-5-(7-morpholin-4-yl-quinazolin-4-yl)-phenyl]thiazol-2-yl-methanol]

same assay, conditions: Homo sapiens, HCT-116, phospho-serine 2056 DNA-PK, bleomycin-treated HCT116 cells; read-out: IC50 pDNA-PK

IC50 [nM]	SMILES
500 to 5000	Cc1nccnc1C(C(N)=O)c1cc(-c2ncnc3cc(N4CCOCC4)ccc23)c(F)cc1Cl (stereo not shown) [Example 324, 2-[2-Chloro-4-fluoro-5-(7-morpholin-4-yl-quinazolin-4-yl)-phenyl]-2-(3-methyl-pyrazin-2-yl)-acetamide]
10000 to 30000	Cn1nc(C(C(N)=O)c2ccc(F)c(-c3ncnc4cc(N5CCOCC5)ccc34)c2)ccc1=O (stereo not shown) [Example 317, 2-[4-Fluoro-3-(7-morpholin-4-yl-quinazolin-4-yl)-phenyl]-2-(1-methyl-6-oxo-1,6-dihydro-pyridazin-3-yl)-acetamide]
< 500	[2H]C1([2H])OC([2H])([2H])C([2H])([2H])N(c2ccc3c(-c4cc(C(O)c5nccnc5OC)c(Cl)cc4F)ncnc3c2)C1([2H])[2H] (stereo not shown) [Example 241, [2-Chloro-4-fluoro-5-[7-(2,2,3,3,5,5,6,6-octadeuterio-morpholin-4-yl)quinazolin-4-yl]phenyl]-(3-methoxypyrazin-2-yl)methanol]
< 500	[2H]C1([2H])OC([2H])([2H])C([2H])([2H])N(c2ccc3c(-c4cc(C(O)c5nccnc5C)ccc4F)ncnc3c2)C1([2H])[2H] (stereo not shown) [Example 238, [4-Fluoro-3-[7-(2,2,3,3,5,5,6,6-octadeuterio-morpholin-4-yl)quinazolin-4-yl]phenyl]-(3-methyl-pyrazin-2-yl)-methanol]
500 to 5000	Cc1cc(C(O)c2cc(-c3ncnc4cc(N5CCOCC5)ccc34)c(F)cc2Cl)n(C)c(=O)c1 (stereo not shown) [Example 339, 6-{[2-Chloro-4-fluoro-5-(7-morpholin-4-yl-quinazolin-4-yl)-phenyl]hydroxy-methyl}-1,4-dimethyl-1H-pyridin-2-one]

same assay, conditions: cellular DNA-PK phosphorylation at serine 2056, HCT116 cells; read-out: IC50 pDNA-PK

IC50 [nM]	SMILES
< 500	OC(c1cc(-c2ncnc3cc(N4CCOCC4)ccc23)c(F)cc1Cl)c1ncnc2ccoc12 (stereo not shown) [Example 452, [2-Chloro-4-fluoro-5-(7-morpholin-4-yl-quinazolin-4-yl)-phenyl]furo[3,2-d}-pyrimidin-4-yl-methanol]
< 500	OC(c1cc(-c2ncnc3cc(N4CCOCC4)ccc23)c(F)cc1F)c1ncnc2ccoc12 (stereo not shown) [Example 445, [2,4-Difluoro-5-(7-morpholin-4-yl-quinazolin-4-yl)-phenyl]furo[3,2-d}-pyrimidin-4-yl-methanol]

same assay, conditions: cellular; HCT116 cells, 10 μM bleomycin, six hours; read-out: IC50 pDNA-PK

IC50 [nM]	SMILES
< 500	COc1nccnc1C(O)c1ccc(F)c(-c2ncnc3cc(N4CCOCC4)ccc23)c1 (stereo not shown) [Example 38, [4-Fluoro-3-(7-morpholin-4-yl-quinazolin-4-yl)phenyl]-(3-methoxy-pyrazin-2-yl)methanol]
